Here are results for 101 compounds from the RepoRT retention time repository (doi:10.1016/j.chroma.2015.11.014).

This series in a line: RP, Agilent ZORBAX Eclipse Plus C18, 150 × 2.1 mm, 3.5 µm, 40 °C, 0.3 mL/min, estimated dead time 1.1 min; A: water + 0.1% formic acid; B: acetonitrile + 0.1% formic acid; gradient (min/%B) 0/2 1/2 2/20 16.5/98 22/98. The following applies: stereoisomer not certain.

As to `COc1ccc2c3c1OC1C(OC(C)=O)C=CC4C(C2)N(C)CCC341` (stereo unspecified), the LC retention time is 6.21 min.

In the case of `CC(C)(C(=O)O)c1ccc(C(O)CCCN2CCC(C(O)(c3ccccc3)c3ccccc3)CC2)cc1` (stereo unspecified), the LC retention time is 8.7 min.

In the case of `O=C1OCCOC(=O)c2ccc(cc2)C(=O)OCCOC(=O)c2ccc(cc2)C(=O)OCCOC(=O)c2ccc1cc2`, the LC retention time was 14.5 min.

For `CC(NC(CCc1ccccc1)C(=O)O)C(=O)C1CCCN1C(=O)O` (stereo unspecified), the LC retention time is 5.84 min.

Turning to `CNC(=O)ON=CC(C)(C)SC`, the LC retention time is 8.4 min.

`OCC[P+](c1ccccc1)(c1ccccc1)c1ccccc1`: the LC retention time is 7.1 min.

Turning to `CCCCCCCC[N+](C)(C)Cc1ccccc1`, the LC retention time is 9.03 min.

Take `CCOC(=O)c1ccc(O)cc1`: the LC retention time is 8.83 min.

For the compound `CCC1OC(=O)C(C)C(OC2CC(C)(OC)C(O)C(C)O2)C(C)C(OC2OC(C)CC(N(C)C)C2O)C(C)(O)CC(C)CN(C)C(C)C(O)C1(C)O` (stereo unspecified), the LC retention time was 6.25 min.

In the case of `Oc1ccc(Oc2ccccc2)cc1`, the LC retention time is 11.1 min.

In the case of `CCCCCCCCCCCCCCCC[N+](C)(C)CCCCCCCCCCCCCCCC`, the LC retention time was 18.4 min.

Turning to `N#CC(C(=O)O)=C(c1ccccc1)c1ccccc1`, the LC retention time was 13.7 min.

For `NC(=O)N1c2ccccc2CC(O)c2ccccc21` (stereo unspecified), the LC retention time was 7.19 min.

Turning to `COC(=O)Nc1nc2ccc(S(=O)c3ccccc3)cc2[nH]1` (stereo unspecified), the LC retention time is 6.58 min.

On to `CCCOc1ccc2nc(NC(=O)OC)[nH]c2c1`, for which the LC retention time was 6.66 min.

For the compound `Cc1cc(C2CC2)nc(Nc2ccccc2)n1`, the LC retention time was 10.8 min.

Regarding `CC(C)NC(=O)NS(=O)(=O)c1cnccc1Nc1cccc(CO)c1`, the LC retention time was 5.82 min.

With `CC1(C)CC(N(C=O)CCCCCCN(C=O)C2CC(C)(C)NC(C)(C)C2)CC(C)(C)N1`, the LC retention time is 4.67 min.

`CC12CCC(=O)C=C1CCC1C2CCC2(C)C(O)CCC12` (stereo unspecified): the LC retention time was 11 min.

With `CC(C)(C)c1cc([N+](=O)[O-])cc([N+](=O)[O-])c1O`, the LC retention time was 13.9 min.

With `CN1C=CN(Cc2ccccc2)C1`, the LC retention time is 4.93 min.

Take `CC(C(=O)O)c1cccc(C(=O)c2ccccc2)c1` (stereo unspecified): the LC retention time was 10.9 min.

Consider `CC1(C)NC(=O)NC1=O`, for which the LC retention time was 3.47 min.

For the compound `CNC(=O)Oc1ccccc1OC(C)C`, the LC retention time was 9.47 min.

Regarding `O=C1CN(N=Cc2ccc([N+](=O)[O-])o2)C(=O)N1`, the LC retention time is 6.22 min.

As for `CC(C)NCC(O)c1ccc(NS(C)(=O)=O)cc1` (stereo unspecified), the LC retention time is 4.58 min.

For `O=S(=O)(O)NC1CCCCC1`, the LC retention time was 5.07 min.

Turning to `CN(C)CCC=C1c2ccccc2CCc2ccccc21`, the LC retention time is 8.71 min.

With `c1ccc(CC2=NCCN2)cc1`, the LC retention time was 4.62 min.

As for `CCCCCCCCCCCCCCCCCCCC[N+](C)(C)C`, the LC retention time was 15.7 min.

Consider `O=c1c(O)c(-c2ccc(O)c(O)c2)oc2cc(O)cc(O)c12`, for which the LC retention time is 8.07 min.

With `CCN(CC)C(=O)c1cccc(CO)c1`, the LC retention time is 6.97 min.

As to `c1ncc2[nH]cnc2n1`, the LC retention time was 2.57 min.

On to `CCNCC(=O)Nc1c(C)cccc1C`, for which the LC retention time is 5.35 min.

With `C#CC1(O)CCC2C3CCc4cc(OC)ccc4C3CCC21C` (stereo unspecified), the LC retention time was 14.5 min.

Take `C=CCC1=C(C)C(OC(=O)C2C(C=C(C)C)C2(C)C)CC1=O` (stereo unspecified): the LC retention time was 16.1 min.

Regarding `CCCCCCCCCC[N+](C)(C)CCCCCCCC`, the LC retention time is 12.4 min.

With `NC(=O)c1ccc[n+](C2OC(COP(=O)(O)OP(=O)([O-])OCC3OC(n4cnc5c(N)ncnc54)C(O)C3O)C(O)C2O)c1` (stereo unspecified), the LC retention time is 2.09 min.

For the compound `CC(=O)c1ccc(C(=O)O)cc1`, the LC retention time is 7.1 min.

As to `CCCCCCCCCCC(C(=O)c1ccc(OC)cc1)[N+](C)(C)C` (stereo unspecified), the LC retention time was 11.3 min.

In the case of `CCN1C=CN(C)C1`, the LC retention time is 1.34 min.

Regarding `CCCCCCC[N+](CCCCCCC)(CCCCCCC)CCCCCCC`, the LC retention time is 14.7 min.

Turning to `CCN1CCCC1CNC(=O)c1cc(S(=O)(=O)CC)c(N)cc1OC` (stereo unspecified), the LC retention time was 5.57 min.

Turning to `CCCc1nc(C(C)(C)O)c(C(=O)O)n1Cc1ccc(-c2ccccc2-c2nn[nH]n2)cc1`, the LC retention time is 7.36 min.

For `O=C(O)c1cc(O)c2c(c1)C(=O)c1cccc(O)c1C2=O`, the LC retention time is 10.8 min.

For the compound `Cn1cnc2c(=O)[nH]c(=O)[nH]c21`, the LC retention time was 2.38 min.

With `COCC(C)N(C(=O)CS(=O)(=O)O)c1c(C)csc1C` (stereo unspecified), the LC retention time is 7.04 min.

With `O=P(O)(Oc1ccccc1)Oc1ccccc1`, the LC retention time was 8.14 min.

For the compound `O=C1NC(=O)C(c2ccccc2)(c2ccccc2)N1`, the LC retention time was 9.18 min.

With `Nc1nc2c(ncn2CCC(CO)CO)c(=O)[nH]1`, the LC retention time was 2.6 min.

`CN(C)CC1CCCCC1(O)c1cccc(O)c1` (stereo unspecified): the LC retention time is 5.39 min.

Turning to `Cc1c[nH]c(=O)[nH]c1=O`, the LC retention time was 3.23 min.

Regarding `COC[P+](c1ccccc1)(c1ccccc1)c1ccccc1`, the LC retention time is 7.5 min.

As to `NC(=O)N1c2ccccc2C2OC2c2ccccc21` (stereo unspecified), the LC retention time was 7.59 min.

In the case of `Oc1cccc2n[nH]nc12`, the LC retention time is 5.34 min.

As for `CN(C)CCC=C1c2ccccc2COc2ccccc21`, the LC retention time was 7.45 min.

Regarding `CC(=O)Nc1ccc(O)cc1`, the LC retention time was 5.02 min.

With `CC(C)NCC(O)COc1ccc(CC(N)=O)cc1` (stereo unspecified), the LC retention time is 4.62 min.

As for `CCOCCOC(=O)Nc1ccc(C)c(NC(=O)OCCOCC)c1`, the LC retention time was 9.91 min.

For `CCC(C)C(=O)OC1CC(O)C=C2C=CC(C)C(CCC(O)CC(O)CC(=O)O)C21` (stereo unspecified), the LC retention time was 8.64 min.

As for `C#CC1(O)CCC2C3CCC4=CC(=O)CCC4(C)C3CCC21C` (stereo unspecified), the LC retention time was 11.7 min.

With `Oc1ccccc1-c1nc2ccccc2[nH]1`, the LC retention time was 6.22 min.

As to `CCCCCCCCC=CCCCCCCCC[N+](C)(C)C`, the LC retention time was 13.7 min.

With `NC(=O)N1c2ccccc2C(O)C(O)c2ccccc21` (stereo unspecified), the LC retention time was 6.66 min.

Turning to `O=P(O)(O)Oc1ccccc1`, the LC retention time was 3.47 min.

With `O=S(=O)(O)c1nc2ccccc2s1`, the LC retention time was 6.5 min.

On to `CC(=O)C1(O)CCC2C3CCC4=CC(=O)CCC4(C)C3CCC21C` (stereo unspecified), for which the LC retention time is 11.8 min.

As to `CNCC(c1ccc(O)cc1)C1(O)CCCCC1` (stereo unspecified), the LC retention time was 5.66 min.

Regarding `CNC(=C[N+](=O)[O-])NCCS(=O)Cc1ccc(CN(C)C)o1` (stereo unspecified), the LC retention time is 2.94 min.

In the case of `CC(C)CC(C)Nc1ccc(Nc2ccccc2)cc1` (stereo unspecified), the LC retention time is 9.19 min.

Regarding `CNCCC(Oc1cccc2ccccc12)c1cccs1` (stereo unspecified), the LC retention time is 8.43 min.

On to `N#CSCSc1nc2ccccc2s1`, for which the LC retention time was 12.4 min.

With `CN1C(C)(C)CC(OC(=O)CCCCCCCCC(=O)OC2CC(C)(C)N(C)C(C)(C)C2)CC1(C)C`, the LC retention time is 6.48 min.

On to `Cc1cc(NS(=O)(=O)c2ccc(N)cc2)no1`, for which the LC retention time was 7.25 min.

Take `CCC(C)C1OC2(C=CC1C)CC1CC(CC=C(C)C(OC3CC(OC)C(OC4CC(OC)C(NC(C)=O)C(C)O4)C(C)O3)C(C)C=CC=C3COC4C(O)C(C)=CC(C(=O)O1)C34O)O2` (stereo unspecified): the LC retention time was 16.2 min.

On to `COCCN(C(=O)CS(=O)(=O)O)c1c(C)cccc1C`, for which the LC retention time is 6.76 min.

In the case of `CC(=O)OCCCC[P+](c1ccccc1)(c1ccccc1)c1ccccc1`, the LC retention time was 8.85 min.

With `CCCCCCCCCCCCCCN(C)C`, the LC retention time was 11.4 min.

On to `O=C(O)CC(O)(CC(=O)O)C(=O)O`, for which the LC retention time is 2.08 min.

With `O=S(=O)(O)c1ccc2ccccc2c1`, the LC retention time was 7.09 min.

In the case of `Cc1ccc(C(C)NC(=O)C(NC(=O)OC(C)C)C(C)C)cc1` (stereo unspecified), the LC retention time was 11.9 min.

Turning to `CC(C)(C)NCC(O)COc1nsnc1N1CCOCC1` (stereo unspecified), the LC retention time is 5.51 min.

`CCC(CCC(C)O)COC(=O)c1ccccc1O` (stereo unspecified): the LC retention time is 12.9 min.

Regarding `CCOC(=O)C(C)[P+](c1ccccc1)(c1ccccc1)c1ccccc1` (stereo unspecified), the LC retention time is 8.09 min.

With `CC1c2cccc(O)c2C(O)=C2C(=O)C3(O)C(O)=C(C(N)=O)C(=O)C(N(C)C)C3C(O)C21` (stereo unspecified), the LC retention time was 6.5 min.

`CCCCCCCCCCCCOS(=O)(=O)O`: the LC retention time was 14.9 min.

With `Cc1ccc(C(=O)c2cc(O)c(O)c([N+](=O)[O-])c2)cc1`, the LC retention time was 11.1 min.

With `CCCCCCCCCCCCCN1CC(C)OC(C)C1` (stereo unspecified), the LC retention time is 10.4 min.

`O=C(NCc1ccccc1)NC1CCCCC1`: the LC retention time is 10.3 min.

As to `C[N+](C)([O-])CCOC(c1ccccc1)c1ccccc1`, the LC retention time is 8.07 min.

Regarding `Cc1ccc(C(=O)O)cc1`, the LC retention time was 8.54 min.

Take `COc1cc2c(cc1OC)C(=O)C(CC1CCN(Cc3ccccc3)CC1)C2` (stereo unspecified): the LC retention time was 7.43 min.

Turning to `CCCCCCCCCCCCCCCCCC[N+](C)(C)C`, the LC retention time was 14 min.

Consider `CC12CCC3c4ccc(O)cc4CCC3C1CC(O)C2=O` (stereo unspecified), for which the LC retention time is 8.67 min.

With `CN(C)c1cccc(O)c1`, the LC retention time is 4.07 min.

Regarding `CCCC[P+](CCCC)(CCCC)CC1OCCO1`, the LC retention time is 8.76 min.

On to `Nc1ccc(O)c([N+](=O)[O-])c1`, for which the LC retention time was 4.69 min.

With `CC(=O)Nc1ccc(C(=O)O)cc1`, the LC retention time is 5.59 min.

On to `Oc1ccc(O)cc1`, for which the LC retention time was 3.67 min.

In the case of `O=P(O)(O)c1ccccc1`, the LC retention time was 3.09 min.

In the case of `CCNc1nc(N)[nH]c(=O)n1`, the LC retention time was 2.31 min.
